Test results taken from patent publication US20230348376A1 (TEIJIN PHARMA LIMITED, priority 2020, published 2023).

Assays:
[1] = system: rat oligodendrocyte progenitor cells; assay: Promotive activity of rat oligodendrocyte progenitor cell differentiation-2 (immunostaining of MBP); format: cell-based; conditions: vitamin D derivative 2 μM, T3 30 nM, 4 days
Experimental: The promotive activity of oligodendrocyte progenitor cell (OPC) differentiation of the vitamin D derivatives was evaluated by immunostaining of MBP.
Subsequently, oligodendrocyte progenitor cell separation medium was added to the flask, and the mixture was similarly shaken for about 22 hours (37° C., 200 rpm), and the supernatant was collected to prepare oligodendrocyte progenitor cells.

[2] = Evaluation of brain penetration in mice (blood and brain concentration at brain Cmax); format: in vivo, mouse; conditions: 1 mg/kg single oral dose, C57BL/6J mice
Experimental: The administration solution was administered orally to C57BL/6J mice (8 weeks old, male, n=3) at a single dose (1 mg/kg). Mice were euthanized at 6 points of 0.25, 0.5, 1, 2, 4, and 8 hours after administration, and plasma and brain sampling were performed. After preparing a homogenate from the collected brain using Tissue Lyser II (QIAGEN #85300), acetonitrile was added to the homogenate and the homogenate was centrifuged (12000 rpm, 5 minutes) to extract the administered test compound contained in the brain. Similarly, the plasma was subjected to addition of acetonitrile and centrifugal separation to extract the administered test compound contained in the plasma. Each extracted sample was subjected to measurement of the concentration of administered test compound using LC/MS/MS (SHIMADZU UFLC/MS/MS (8050)).
Test 2 [0.2 mg/kg Administration Study] […] The administration solution was administered orally to C57BL/6J mice (8 weeks old, male, n=3) at a single dose (0.2 mg/kg). Mice were euthanized at 6 points of 0.25, 0.5, 1, 2, 4, and 8 hours after administration, and plasma and brain sampling were performed. After preparing a homogenate from the collected brain using Tissue Lyser II (QIAGEN #85300), acetonitrile was added to the homogenate and the homogenate was centrifuged (12000 rpm, 5 minutes) to extract the administered compound contained in the brain. Similarly, the plasma was subjected to addition of acetonitrile and centrifugal separation to extract the administered test compound contained in the plasma. Each extracted sample was subjected to measurement of the concentration of administered test compound using LC/MS/MS (SHIMADZU UFLC/MS/MS (8050)).

[3] = target: T1, human VDR (Homo sapiens, UniProt P11473); assay: Evaluation of VDR transcription activity in human osteoblasts (HOS cells), luciferase reporter; conditions: Activity (EC50, VDR transcription activity), HOS cells transfected with human VDR, human RXRα and DR3 luciferase reporter; 21 hours
T1 sequence (P11473 1-427): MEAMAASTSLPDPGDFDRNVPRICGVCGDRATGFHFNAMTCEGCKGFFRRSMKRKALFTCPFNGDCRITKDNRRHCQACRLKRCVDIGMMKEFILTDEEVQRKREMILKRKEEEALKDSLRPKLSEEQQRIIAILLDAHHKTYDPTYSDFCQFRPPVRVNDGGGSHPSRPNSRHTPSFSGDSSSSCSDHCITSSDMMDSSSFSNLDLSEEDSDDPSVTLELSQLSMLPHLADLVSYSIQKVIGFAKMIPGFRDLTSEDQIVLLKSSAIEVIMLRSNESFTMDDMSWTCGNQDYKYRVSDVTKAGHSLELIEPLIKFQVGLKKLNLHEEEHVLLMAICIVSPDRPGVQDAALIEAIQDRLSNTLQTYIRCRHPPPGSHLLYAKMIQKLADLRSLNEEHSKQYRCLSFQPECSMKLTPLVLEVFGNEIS
T1 sequence (P19793 1-462 partner): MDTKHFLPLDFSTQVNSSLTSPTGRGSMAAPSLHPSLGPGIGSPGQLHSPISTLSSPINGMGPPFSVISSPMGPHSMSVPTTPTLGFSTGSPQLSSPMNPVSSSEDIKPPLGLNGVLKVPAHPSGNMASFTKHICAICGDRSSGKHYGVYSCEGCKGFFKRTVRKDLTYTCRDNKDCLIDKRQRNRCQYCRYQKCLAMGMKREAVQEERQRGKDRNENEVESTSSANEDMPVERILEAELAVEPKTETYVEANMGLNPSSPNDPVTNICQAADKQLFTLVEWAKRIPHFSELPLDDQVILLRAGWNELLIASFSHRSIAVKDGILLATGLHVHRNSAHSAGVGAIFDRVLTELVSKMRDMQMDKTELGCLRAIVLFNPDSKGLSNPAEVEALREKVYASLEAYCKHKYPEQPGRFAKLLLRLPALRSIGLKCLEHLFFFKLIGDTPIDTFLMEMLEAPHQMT

C=C1/C(=C\C=C2/CCC[C@]3(C)[C@@H]([C@H](C)CN4CCCC[C@H]4C)CC[C@@H]23)C[C@@H](O)C[C@@H]1O [Compound F002, (1R,3S,Z)-5-(2-((1R,3aS,7aR,E)-7a-methyl-1-((S)-1-((R)-2-methylpiperidin-1-yl)propan-2-yl)octahydro-4H-inden-4-ylidene)ethylidene)-4-methylenecyclohexane-1,3-diol]
Mean (number of MBP-positive cells/number of Hoechst33342-positive cells) ([1]; Test 7): 0.31

C=C1[C@H](O)CC(=C/C=C2\CCC[C@]3(C)[C@@H]([C@H](C)CN4CCC[C@@H]4C(C)(C)OC)CC[C@@H]23)C[C@H]1O [Compound H015, (1R,3R)-5-(2-((1R,3aS,7aR,E)-1-((S)-1-((R)-2-(2-methoxypropan-2-yl)pyrrolidin-1-yl)propan-2-yl)-7a-methyloctahydro-4H-inden-4-ylidene)ethylidene)-2-methylenecyclohexane-1,3-diol]
Mean (number of MBP-positive cells/number of Hoechst33342-positive cells) ([1]; Test 8): 0.34

C=C1/C(=C\C=C2/CCC[C@]3(C)[C@@H]([C@H](C)CN4CCOC[C@@H]4C)CC[C@@H]23)C[C@@H](O)C[C@@H]1O [Compound F004, (1R,3S,Z)-5-(2-((1R,3aS,7aR,E)-7a-methyl-1-((S)-1-((S)-3-methylmorpholino)propan-2-yl)octahydro-4H-inden-4-ylidene)ethylidene)-4-methylenecyclohexane-1,3-diol]
Mean (number of MBP-positive cells/number of Hoechst33342-positive cells) ([1]; Test 3): 0.37

C[C@H](CN1CCC[C@@H]1C(C)(C)O)[C@H]1CC[C@H]2/C(=C/C=C3C[C@@H](O)C[C@H](O)C3)CCC[C@]12C [Compound G013, (1R,3R)-5-(2-((1R,3aS,7aR,E)-1-((S)-1-((R)-2-(2-hydroxypropan-2-yl)pyrrolidin-1-yl)propan-2-yl)-7a-methyloctahydro-4H-inden-4-ylidene)ethylidene)cyclohexane-1,3-diol]
Mean (number of MBP-positive cells/number of Hoechst33342-positive cells) ([1]; Test 6): 0.55

C=C1/C(=C\C=C2/CCC[C@]3(C)[C@@H]([C@H](C)CN4CCCC[C@H]4C)CC[C@@H]23)C[C@@H](O)C[C@H]1O [Compound I002, (1R,3R,Z)-5-(2-((1R,3aS,7aR,E)-7a-methyl-1-((S)-1-((R)-2-methylpiperidin-1-yl)propan-2-yl)octahydro-4H-inden-4-ylidene)ethylidene)-4-methylenecyclohexane-1,3-diol]
Mean (number of MBP-positive cells/number of Hoechst33342-positive cells) ([1]; Test 9): 0.31

C=C1/C(=C\C=C2/CCC[C@]3(C)[C@@H]([C@H](C)CN4CCCC[C@@H]4C)CC[C@@H]23)C[C@@H](O)C[C@H]1O [Compound I001, (1R,3R,Z)-5-(2-((1R,3aS,7aR,E)-7a-methyl-1-((S)-1-((S)-2-methylpiperidin-1-yl)propan-2-yl)octahydro-4H-inden-4-ylidene)ethylidene)-4-methylenecyclohexane-1,3-diol]
Mean (number of MBP-positive cells/number of Hoechst33342-positive cells) ([1]; Test 9): 0.30

C=C1/C(=C\C=C2/CCC[C@]3(C)[C@@H]([C@H](C)CN4CCOC[C@H]4C)CC[C@@H]23)C[C@@H](O)C[C@H]1O [Compound I005, (1R,3R,Z)-5-(2-((1R,3aS,7aR,E)-7a-methyl-1-((S)-1-((R)-3-methylmorpholino)propan-2-yl)octahydro-4H-inden-4-ylidene)ethylidene)-4-methylenecyclohexane-1,3-diol]
Mean (number of MBP-positive cells/number of Hoechst33342-positive cells) ([1]; Test 4): 0.43

C[C@H](CN1CCN(C)C[C@@H]1C)[C@H]1CC[C@H]2/C(=C/C=C3C[C@@H](O)C[C@H](O)C3)CCC[C@]12C [Compound G011, (1R,3R)-5-(2-((1R,3aS,7aR,E)-1-((S)-1-((S)-2,4-dimethylpiperazin-1-yl)propan-2-yl)-7a-methyloctahydro-4H-inden-4-ylidene)ethylidene)cyclohexane-1,3-diol]
Mean (number of MBP-positive cells/number of Hoechst33342-positive cells) ([1]; Test 5): 0.22

C=C1/C(=C\C=C2/CCC[C@]3(C)[C@@H]([C@H](C)CN4CCC[C@H]4C(C)(C)O)CC[C@@H]23)C[C@@H](O)C[C@@H]1O [Compound F014, (1R,3S,Z)-5-(2-((1R,3aS,7aR,E)-1-((S)-1-((S)-2-(2-hydroxypropan-2-yl)pyrrolidin-1-yl)propan-2-yl)-7a-methyloctahydro-4H-inden-4-ylidene)ethylidene)-4-methylenecyclohexane-1,3-diol]
Mean (number of MBP-positive cells/number of Hoechst33342-positive cells) ([1]; Test 8): 0.29

C=C1/C(=C\C=C2/CCC[C@]3(C)[C@@H]([C@H](C)CN4CCN(C)C[C@H]4C)CC[C@@H]23)C[C@@H](O)C[C@@H]1O [Compound F012, (1R,3S,Z)-5-(2-((1R,3aS,7aR,E)-1-((S)-1-((R)-2,4-dimethylpiperazin-1-yl)propan-2-yl)-7a-methyloctahydro-4H-inden-4-ylidene)ethylidene)-4-methylenecyclohexane-1,3-diol]
Mean (number of MBP-positive cells/number of Hoechst33342-positive cells) ([1]; Test 7): 0.23

C[C@H](CN1CCCCC1(C)C)[C@H]1CC[C@H]2/C(=C/C=C3C[C@@H](O)C[C@H](O)C3)CCC[C@]12C [Compound G003, (1R,3R)-5-(2-((1R,3aS,7aR,E)-1-((S)-1-(2,2-dimethylpiperidin-1-yl)propan-2-yl)-7a-methyloctahydro-4H-inden-4-ylidene)ethylidene)cyclohexane-1,3-diol]
Mean (number of MBP-positive cells/number of Hoechst33342-positive cells) ([1]; Test 3): 0.47

C=C1[C@H](O)CC(=C/C=C2\CCC[C@]3(C)[C@@H]([C@H](C)CN4CCCC[C@H]4C)CC[C@@H]23)C[C@H]1O [Compound H002, (1R,3R)-5-(2-((1R,3aS,7aR,E)-7a-methyl-1-((S)-1-((R)-2-methylpiperidin-1-yl)propan-2-yl)octahydro-4H-inden-4-ylidene)ethylidene)-2-methylenecyclohexane-1,3-diol]
Mean (number of MBP-positive cells/number of Hoechst33342-positive cells) ([1]; Test 9): 0.39

C=C1/C(=C\C=C2/CCC[C@]3(C)[C@@H]([C@H](C)CN4CCOC[C@H]4C)CC[C@@H]23)C[C@@H](O)C[C@@H]1O [Compound F005, (1R,3S,Z)-5-(2-((1R,3aS,7aR,E)-7a-methyl-1-((S)-1-((R)-3-methylmorpholino)propan-2-yl)octahydro-4H-inden-4-ylidene)ethylidene)-4-methylenecyclohexane-1,3-diol]
Mean (number of MBP-positive cells/number of Hoechst33342-positive cells) ([1]; Test 3): 0.40

C=C1/C(=C\C=C2/CCC[C@]3(C)[C@@H]([C@@H](C)CN4CC[C@H](F)C4)CC[C@@H]23)C[C@@H](O)C[C@@H]1O [Compound B018, (1R,3S,Z)-5-(2-((1R,3aS,7aR,E)-1-((R)-1-((S)-3-fluoropyrrolidin-1-yl)propan-2-yl)-7a-methyloctahydro-4H-inden-4-ylidene)ethylidene)-4-methylenecyclohexane-1,3-diol]
Concentration in blood (mean ± SD) at brain Cmax ([2]; n=3): 841 ± 197 nM | Concentration in brain (mean ± SD) at brain Cmax ([2]; n=3): 533 ± 197 pmol/g | Kp ([2]; male, C57BL/6J, mouse, brain/plasma, po, 1 mg/kg, read-out: Concentration in brain/in blood ratio at brain Cmax): 0.63 | EC50 [3]: 10 to 100 nM
